Reference: patent publication US5759573A, “Cyclodextrin liposomes encapsulating pharmacologic compounds and methods for their use” (DepoTech Corporation, priority 1995, dated 1998)

Assays:
[1] = cited from earlier work
L1210 leukemia [2] = assay: Efficacy of single subcutaneous dose in murine L1210 model (increased life span); type: in vivo, mouse (BDF1); settings: L1210, single sc dose on Day 1, increased life span
Text: BDF1 and DBA/2J mice were from Simonsen Laboratories, Gilroy, Calif. The L1210 leukemia was maintained by serial intraperitoneal passage in DBA/2J female mice.
(§1) Five animals were in each group except for the control (given 0.9% NaCl alone), where 10 animals were used. […] Median survival time was used to calculate the "increased life span" (ILS) according to the formula: […]
where T is the median survival time of treated groups and C is the median survival time for control groups.
(§2) The LD50 was calculated after probit transformation.

in vivo [3] = settings: mouse, sc
Experimental: as §1, §2

[4] = estimated from studies in vitro; read-out: minimal cytotoxic concentration; cited from earlier work
in vivo [5] = settings: mouse, sc, 10 mg/kg
Experimental: (§4) Subcutaneous (sc) pharmacokinetic studies were done using male BDF1 mice, weighing 20-25 grams. […] At each time point, 3 animals were sacrificed.
(§5) A full thickness of the abdominal wall tissue, including the entire skin and the underlying peritoneal membrane, was then excised from the costal margin to the inguinal area and from one flank to the other. The entire tissue specimen was homogenized after addition of at least 20 ml of distilled water with a Polytron homogenizer. The homogenate was sonicated for 60 seconds at a maximum setting with a Biosonic IV probe sonicator and filtered through a YMT ultrafiltration membrane (Amicon Corp, product #4104). All the samples were kept at -20° C. until assayed by HPLC. The RSTRIP program was used to perform the curve fitting. AUC was determined by linear trapezoidal rule up to the last measured concentration and extrapolated to infinity.

L1210 leukemia [6] = assay: Efficacy of single intraperitoneal dose in murine L1210 model (increased life span); type: in vivo, mouse (BDF1); settings: L1210, single ip dose on Day 1, increased life span
Experimental: (§3) There were five mice per group and fifteen mice were used as untreated controls (given 1 ml of 0.9% NaCl solution). The result was expressed as "increased life span".

in vivo [7] = settings: mouse, ip, 10 mg/kg
Experimental: (§6) The in vivo studies were done on male BDF1 mice weighing 18-25 g. […] The Emit^R assay is a homogeneous enzyme immunoassay technique based on the competition between drug present in the sample and drug labeled with the enzyme glucose-6-phosphate dehydrogenase for antibody binding sites. The limit of sensitivity was 0.02 μM.
(§7) Five μl of the peritoneal fluid samples were collected into a glass capillary pipette and diluted into 140 μl of 0.9% NaCl solution. […] Fifty μl of methanol was added to the pellet and vortexed to break multivesicular particles. The peritoneal cavities were then washed out thoroughly with 2-3 ml of 0.9% NaCl solution thrice. All samples were kept frozen at -20° C. until assayed by HPLC. Extraction of the samples was not necessary, no internal standard was used and there were no interfering peaks. RSTRIP computer program was used to analyze pharmacokinetic data. The area under the curve was determined by linear trapezoidal rule up to the last measured concentration and extrapolated to infinity.

in vivo [8] = settings: rat
Experimental: Rats were anesthetized with ketamine HCl (90 mg/kg and acetopromazine maleate (2.2 mg/kg, injected intramuscularly) and mounted in a conventional stereotaxic frame. Using a No. 15 blade, a midline cutaneous incision approximately 1 cm in length was made from the occipital crest to just behind the ears. The muscle ligament along the occipital crest at the skull was detached with a scalpel for 4 mm on either side of the midline. Using both the sharp and blunt ends of a periosteal elevator, the muscle from the occipital bone was freed down to the atlanto-occipital membrane. A retractor was placed in the incision to draw the muscle aside and obtain a clear view of the atlanto-occipital membrane. […] The needle was withdrawn, the skin was sutured with 3-0 silk, and the animal was given 10 ml lactated Ringer'solution subcutaneously for hydration.
At appropriate time points after injection, the atlanto-occipital membrane was again exposed under anesthesia and a sample of cerebrospinal fluid ranging from 30 to 60 μl was obtained through a 19-gauge needle. […] The cerebrospinal fluid samples were then kept frozen at -20° C. until analyzed using a high-performanceliquid chromatography (HPLC) system as described below.
After cerebrospinal fluid sampling, the animals were sacrificed with an overdose of ketamine (90 mg/kg) and acetopromazine (20 mg/kg), injected intraperitoneally. Blood samples were obtained via cardiac puncture and thorough exsanguination was performed. […] The calvarium was then exposed and carefully removed with a bone rongeur. The entire content of the cranial compartment was collected by scooping out the exposed brain with a spatula and washing the cranial vault thoroughly with distilled water. The spinal compartment content was then collected separately; the spinal cord was extruded forward into the cranial vault by pushing distilled water rapidly through a 19-gauge needle inserted into the lower lumbar spinal canal at a point 2.5 cm rostral to the origin of the tail. […] The cranial compartment samples were analyzed separately from the spinal canal samples. Both tissue samples were homogenized with water using a Polytron homogenizer.
The homogenized samples of brain or spinal cord were analyzed with HPLC after extraction as described by Alkayal et al. Ther. Drug Monit. 12:191 (1990). Briefly, in a glass centrifuge tube, a 500 μl aliquot of homogenate, 100 μl of theophylline aqueous solution (internal standard, 2.0 mg/ml), 250 μl trichloroacetic acid solution (10% in water), and 250 μl glacial acetic acid were placed and mixed. […] Ethyl acetate organic phase was decanted and evaporated under nitrogen at 60° C. The extracted residue was dissolved in 200 μl of mobile phase and 100 μl of the resulting solution was injected into the HPLC.
The RSTRIP computer program (MicroMath Scientific Software, Salt Lake City, Utah) was used to perform the pharmacokinetics analysis.

[9] = Intraperitoneal pharmacokinetics in BDF1 mice; settings: mouse, 10 mg/kg ip
Experimental: as §6, §7

[10] = Toxicity and therapeutic index of single intraperitoneal dose; set-up: species or system mouse (BDF1); settings: in vivo; mouse, single ip dose, probit transformation
Experimental: as §3
LD50 was calculated after probit transformation by PHARM/PCS program (MicroComputer Specialists, Philadelphia, Pa.). […] The therapeutic index (TI) for single IP dosage was calculated by the equation: […]

[11] = Subcutaneous pharmacokinetics in BDF1 mice; settings: mouse, 10 mg/kg sc
Experimental: as §4, §5

## CN(Cc1cnc2nc(N)nc(N)c2n1)c1ccc(C(=O)N[C@@H](CCC(=O)O)C(=O)O)cc1 [unencapsulated methotrexate, methotrexate]
[1]; im or sc
  absorption after im or sc administration (in words): much more predictable and complete
  serum concentrations after im or sc versus oral dose (in words): higher serum concentrations than after an oral dose
[1]; patients, oral
  absorption rate after oral administration (in words): highly variable among patients and appears to be saturable
L1210 leukemia [2]
  maximum efficacy (ILS max): 183%
In vivo [3]
  LD50: 2650 mg/kg
[4]
  MCC: 500 nM
In vivo [5]; plasma
  AUC(0-inf): 17.3 µM·h
  Cmax: 17.4 ± 5.2 µM
  Tmax: 15 min
  half-life: 31.8 min
In vivo [5]; skin at injection site
  half-life: 9.6 min
L1210 leukemia [6]
  maximum efficacy (ILS max): 100%
In vivo [7]; peritoneal fluid
  AUC(0-inf): 233 µM·h
  Cmax: 430 ± 13 µM
  half-life: 32.4 min
In vivo [7]; plasma
  AUC(0-inf): 11.2 µM·h
  half-life: 54 min
In vivo [8]
  Amount t1/2 (total amount of drug within CNS): 43 min
  concentration at 4 h: 0.11 ± 0.02 µM
In vivo [8]; Amount t1/2 (total amount of drug within CNS)
  half-life: 43.2 min
In vivo [8]; Conc. t1/2 α (initial half-life, CSF)
  half-life: 34.6 min
In vivo [8]; Conc. t1/2 β (terminal half-life, CSF)
  half-life: 432 min
[9]; total amount for MVL-CD-MTX
  Peritoneal Amount t1/2: 27 min
[9]; unencapsulated drug or complex, or free methotrexate after MVL-CD-MTX
  Peritoneal Conc. t1/2: 32.4 min
[10]
  LD50: 2760 mg/kg
[11]; injection site
  Amount t1/2 (total amount of methotrexate in skin): 9.6 min
[11]; plasma
  Conc. t1/2 (plasma half-life): 31.8 min
